# Data reported in patent US20060275812A1, “Assay for agonists and antagonists of ion channels and for regulators of genetic expression” (University of Pittsburgh of the Commonwealth System of …, priority 2005, published 2006).
# “Also recorded” adds a separate entry of the source.
# What was measured:
# TRPV1 [1] = target: T1, TRPV1 (Rattus norvegicus, UniProt O35433); experiment: Intracellular calcium measurement (FURA-2); type: cell-based
# T1 construct: expressed in transfected cells; host or cells: ICP4/ICP27-complementing 7b cells (Vero-derived) infected with HSV-1 vector vTT
# T1 sequence (O35433 whole entry): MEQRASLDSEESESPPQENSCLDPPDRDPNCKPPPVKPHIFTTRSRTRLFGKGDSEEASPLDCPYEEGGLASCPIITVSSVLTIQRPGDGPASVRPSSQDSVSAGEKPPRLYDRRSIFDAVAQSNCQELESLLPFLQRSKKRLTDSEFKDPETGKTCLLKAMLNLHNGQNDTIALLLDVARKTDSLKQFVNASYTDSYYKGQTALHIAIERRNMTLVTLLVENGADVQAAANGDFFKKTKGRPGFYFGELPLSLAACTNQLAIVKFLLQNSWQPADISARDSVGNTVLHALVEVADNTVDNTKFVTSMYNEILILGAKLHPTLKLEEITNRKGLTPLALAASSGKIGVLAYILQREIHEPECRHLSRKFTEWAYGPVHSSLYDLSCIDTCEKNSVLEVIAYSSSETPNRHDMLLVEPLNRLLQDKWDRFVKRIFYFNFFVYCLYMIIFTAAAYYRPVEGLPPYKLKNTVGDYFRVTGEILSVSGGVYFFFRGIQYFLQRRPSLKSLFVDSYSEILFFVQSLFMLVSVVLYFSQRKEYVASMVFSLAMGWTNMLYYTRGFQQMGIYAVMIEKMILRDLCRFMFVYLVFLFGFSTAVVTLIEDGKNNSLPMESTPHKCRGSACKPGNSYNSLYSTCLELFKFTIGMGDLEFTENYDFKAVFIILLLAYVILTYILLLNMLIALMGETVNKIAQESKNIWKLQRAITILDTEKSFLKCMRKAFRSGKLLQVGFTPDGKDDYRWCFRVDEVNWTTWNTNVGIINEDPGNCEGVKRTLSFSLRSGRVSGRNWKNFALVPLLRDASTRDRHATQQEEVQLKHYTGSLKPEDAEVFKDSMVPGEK
# Experimental: Free intracellular calcium was measured by photon scanning on a dual excitation fluorimeter (PTI, Lawrenceville, N.J.). vTT or QOZ infected 7b cells were plated in 6 well plates containing 13.5×20 mm coverslips. Infected cells (8 hpi, 3 PFU/cell) were rinsed with 1× Hank's balanced salt solution (HBSS) and loaded with 2 μM FURA-2 (Molecular Probes Inc., Eugene, Oreg.) (Sneddon et al., 2000) for 1 hour at 37° C. in a 5% CO2 incubator. Coverslips with FURA-2 loaded cells were then placed in a cuvette containing HBBS and then separately subjected to capsaicin at either 3 or 0.3 μM concentrations. Calcium flux following the application of each concentration of capsaicin was measured at 2 Hz and graphed. Results were calibrated by adding 5 μM ionomycin to obtain the maximum fluorescence ratio, followed by addition of 10 mM EGTA to obtain the minimum fluorescence ratio. A Kd of FURA-2 for calcium of 224 nM was assumed.
# TRPV1 [2] = target: T1, TRPV1; experiment: Viral growth assay (vTT / vHG titers by plaque assay); type: cell-based
# rat TRPV1 receptor = rat TRPV1 receptor (Rattus norvegicus, UniProt O35433); experiment: Whole cell patch clamp recordings of capsaicin induced currents
# Chain of rat TRPV1 receptor (O35433 whole entry): as above
# TRPV1 [3] = target: T1, TRPV1; experiment: Capsaicin selection against vTT in mixed vHG:vTT infections; type: cell-based
# [4] = vTT infected 7b cells, 5 μM ionomycin
# [5] = vTT infected cells, BIM pre-incubation, n=3
# [6] = vTT infected cells, mean±SEM, n=8
smiles,measurement,setting,value
O=C(O)CN(CCOCCOCCN(CC(=O)O)CC(=O)O)CC(=O)O [EGTA],intracellular calcium signal after capsaicin and ionomycin,"TRPV1 [1]; vTT infected 7b cells, 10 mM EGTA",return to baseline levels
COc1cccc(NC(=O)/C=C/c2ccc(Cl)cc2)c1 [SB-366791],vTT viral titers in the presence of capsaicin,"TRPV1 [2]; 1 μM and 10 μM SB-366791 + 0.5 μM capsaicin, all time points, p<0.05, n=4",dose dependent rescue
same,replication of control vector vHG,TRPV1 [2]; CAP and SB-366791 together,did not affect
same,"replication of vHG or vTT, antagonist alone",TRPV1 [2]; SB-366791 alone at 1 and 10 μM,did not affect
C[C@H](CCC(=O)O)C[C@H](C)C[C@H](C)C(=O)/C=C(\O)[C@H](C)C[C@H](C)C/C=C/[C@@H](C)[C@@H](O)[C@@H](C)[C@@H](O)C[C@@H]1CC[C@@](C)([C@H]2CC[C@@](C)([C@@H](C)O)O2)O1 [ionomycin],calcium influx,"TRPV1 [1]; QOZ infected cells, 5 μM ionomycin",maximal calcium influx
same,intracellular calcium response after 0.3 μM capsaicin,TRPV1 [1]; [4],further increased
same,intracellular calcium response after 3 μM capsaicin,TRPV1 [1]; [4],did not further increase
"CCCC(=O)O[C@@H]1[C@@H](C)[C@@]2(O)[C@@H](C=C(CO)C[C@]3(O)C(=O)C(C)=C[C@@H]23)[C@@H]2C(C)(C)[C@]12OC(=O)CCC [PDBu, phorbol 12,13-dibutyrate]",effect on capsaicin current after the first phase of desensitization,"rat TRPV1 receptor; vTT infected 7b cells, PDBu 5 μM",did not affect the current; also recorded: could not be enhanced
"C=C(C)[C@]12C[C@@H](C)[C@@]34O[C@](Cc5ccccc5)(O[C@@H]1[C@@H]3C=C(COC(=O)Cc1ccc(O)c(OC)c1)C[C@]1(O)C(=O)C(C)=C[C@@H]41)O2 [RTX, resiniferatoxin]","growth ratio (GR), highest observed difference","TRPV1 [2]; 1 μM RTX, 72 hpi, p<0.05, n=4",474
same,capsaicin dose relative to RTX dose giving similar reduction in vTT viral titers,"TRPV1 [2]; nanomolar RTX, all time points",~100 fold
"CN(C)CCCn1cc(C2=C(c3c[nH]c4ccccc34)C(=O)NC2=O)c2ccccc21.Cl [BIM, bisindolylmaleimide I HCl]",effect of pre-incubation on capsaicin currents,"rat TRPV1 receptor; vTT infected 7b cells, compared to BIM untreated",significantly lower amplitude and rapidly desensitizing currents
same,Capsaicin (nA),rat TRPV1 receptor; [5],−2.2 ± 1.2 nA
same,"Capsaicin Desensitization Time-course (tau, s)",rat TRPV1 receptor; [5],53.4 ± 15.4 s
COc1cc(CNC(=O)CCCC/C=C/C(C)C)ccc1O [capsaicin],vHG (GFP+) percent output after two passages,"TRPV1 [3]; 3 μM capsaicin, 0.005% vHG input (1:20,000 vHG:vTT)",95%
same,vHG (GFP+) percent output after one passage,"TRPV1 [3]; 3 μM capsaicin, 0.005% vHG input (1:20,000 vHG:vTT), 72 hpi",66%
same,vHG proportion after two passages,"TRPV1 [3]; capsaicin, 1:100,000 vHG input",40%
same,lowest concentration with significant differences in replication between vHG and vTT,TRPV1 [2],0.3 µM
same,vTT replication,TRPV1 [2],specifically inhibited
same,vHG titers,TRPV1 [2]; 3 μM CAP alone,without affecting
same,"growth ratio (GR), vHG to vTT virus yield, greatest differential","TRPV1 [2]; 3 μM capsaicin, 72 hpi, p<0.05, n=4",~500 fold
same,Capsaicin (nA),rat TRPV1 receptor; no virus (uninfected cells),No
same,response to capsaicin stimulation,rat TRPV1 receptor; vHG (control) infected 7b cells,do not respond; also recorded: did not respond
same,Capsaicin (nA),rat TRPV1 receptor; vHG infected cells,No
same,inward current following stimulation with capsaicin,"rat TRPV1 receptor; vTT infected 7b cells, 0.5 μM capsaicin, FIG. 3 trace",9 nA
same,Capsaicin (nA),rat TRPV1 receptor; [6],−6.0 ± 0.6 nA
same,"Capsaicin Desensitization Time-course (tau, s)",rat TRPV1 receptor; [6],280.6 ± 45.1 s
same,intracellular calcium response,"TRPV1 [1]; QOZ (control) infected cells, 0.3 or 3 μM capsaicin",no effect
same,intracellular calcium,"TRPV1 [1]; vTT infected 7b cells, 8 hpi, 3 μM capsaicin",significant increase
same,intracellular calcium response,"TRPV1 [1]; vTT infected 7b cells, 0.3 μM capsaicin, versus 3 μM",smaller response
N.N.N.N.N.N.N.N.N.N.N.N.N.N.[Cl-].[Cl-].[Cl-].[Cl-].[Cl-].[Cl-].[O-2].[O-2].[Ru+3].[Ru+3].[Ru+4] [ruthenium red],replication of vTT in the presence of capsaicin,TRPV1 [2],completely restored
same,"vector replication, antagonist alone",TRPV1 [2],unaffected
same,antagonism of capsaicin-induced vTT specific currents,"rat TRPV1 receptor; vTT infected 7b cells, RuR 5 μM in FIG. 3",brought the current back to baseline; also recorded: antagonized
